pIC50: −log10 of the molar value. Structures can show the parent of a compound that is named as a salt. Where two headings read alike, the source gives them in different places.
What was measured:
[1] = tested on: fibrin-induced microglia activation; assay: Image-based assay of fibrin-induced microglia activation (HTS and dose response); assay type: cell-based, rat; details: for IC50: read-out: Fibrin IC50 (uM) (Suppl. Table 7); for inhibition at 10 µM: Rattus norvegicus, Microglia, read-out: Fibrin % inhibition
[2] = tested on: LPS-induced microglia activation; assay: Image-based assay of LPS-induced microglia activation (HTS and dose response); assay type: cell-based, rat; details: for IC50: read-out: LPS IC50 (uM) (Suppl. Table 7); for inhibition at 10 µM: Rattus norvegicus, Microglia, read-out: LPS % inhibition
[3] = tested on: fibrin- and LPS-induced microglia activation; assay: cells; assay type: cell-based, rat
primary rat microglia [4] = assay: Cell toxicity (dead cells, size <150 μm2) in LPS assay; details: for IC50: read-out: Cell Toxicity IC50 (uM) [LPS assay]
primary rat microglia [5] = assay: Cell toxicity (dead cells, size <150 μm2) in coated fibrin (cFib) assay; details: for IC50: read-out: Cell Toxicity IC50 (uM) [cFib assay];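 on Fibrin % cell toxicity: share of dead cells sized under 150 µm2 at 10 µM in fibrin-stimulated microglia HTS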
[6] = primary microglia HTS, fibrin stimulation, increased cell size (>800 μm^2) as marker of activation
[7] = primary microglia HTS, LPS stimulation, increased cell size (>800 μm^2) as marker of activation
[8] = HTS of 1907 compounds, quadrant by fibrin and LPS inhibition
[9] = quadrant by fibrin and LPS inhibition in HTS of 1907 compounds
[10] = primary microglia HTS, LPS stimulation, decreased size (<150 μm^2) as marker of toxicity
[11] = primary microglia HTS, fibrin stimulation, decreased size (<150 μm^2) as marker of toxicity
[12] = 48 h, primary microglia HTS, LPS stimulation, increased cell size (>800 μm^2) as marker of activation
[13] = primary microglia HTS, 10 μM, fibrin-stimulated, cell size >800 μm^2 as marker of activation
[14] = primary microglia HTS, 10 μM, LPS-stimulated, cell size >800 μm^2 as marker of activation
[15] = primary microglia HTS, 10 μM, LPS assay, cell size <150 μm^2 as marker of toxicity
[16] = primary microglia HTS, 10 μM, fibrin assay, cell size <150 μm^2 as marker of toxicity
[17] = primary HTS, 10 μM, fibrin-stimulated primary microglia
[18] = primary HTS, 10 μM, LPS-stimulated primary microglia
[19] = primary HTS, 10 μM, LPS assay, dead cells size <150 μm2
[20] = primary HTS, 10 μM, fibrin assay, dead cells size <150 μm2
[21] = primary microglia HTS, fibrin stimulation, activation = cell size >800 μm2
[22] = 48 h, primary microglia HTS, LPS stimulation, activation = cell size >800 μm2
[23] = primary microglia HTS, LPS stimulation, toxicity = cell size <150 μm2
[24] = primary microglia HTS, fibrin stimulation, toxicity = cell size <150 μm2

## Monensin [reference compound]
[1]
  Fibrin Selectivity: 49
  Fibrin Selectivity (LOG10): 1.69
[1]; Hill slope of fibrin dose response, Table 7
  fib_HS: −3.80
[1]; Table 1, dose response 0.001-20 μM, triplicates, primary rat microglia, 48 h, read-out: Fibrin IC50
  pIC50: 8.40
[1]; Table 3
  IC50: 0.004 µM
[1]; Table 6
  IC50: 0.004 µM
[1]; Table 7
  fib specificity: 0.2
[1]; Table 7, read-out: fib_IC50
  pIC50: 5.94
[1]; dose response, fibrin-induced microglia activation, read-out: Fibrin IC50
  pIC50: 8.40
[1]; fibrin vs LPS, LOG10, Table 6
  Fibrin Selectivity (LOG10): 1.69
[1]; fibrin vs LPS, Table 6
  Fibrin Selectivity: 49
[1]; fibrin-induced microglia activation, dose response
  IC50: 0.004 µM
[1]; [6]
  Fibrin % inhibition: 101%
[2]; Hill slope of LPS dose response, Table 7
  LPS_HS: −0.48
[2]; LPS-induced microglia activation, dose response
  IC50: 0.2 µM
[2]; Table 1, dose response 0.001-20 μM, triplicates, primary rat microglia, 48 h, read-out: LPS IC50
  pIC50: 6.70
[2]; Table 3
  IC50: 0.2 µM
[2]; Table 6
  IC50: 0.2 µM
[2]; Table 7
  LPS specificity: 5.4
[2]; Table 7, read-out: LPS_IC50
  pIC50: 6.67
[2]; dose response, LPS-induced microglia activation, read-out: LPS IC50
  pIC50: 6.70
[2]; [7]
  LPS % inhibition: 117%
[3]; HTS hit classification
  Hit: HIT (Hits were defined as molecules that exhibited greater than 50% inhibition of either fibrin or LPS activation)
[3]; [8]
  Quadrant (FIG. 5b): Q2
[3]; Table 1, screen at 10 μM
  Quadrant (FIG. 5b): Q2
[3]; Table 3
  Cherry-picked Hit (Suppl. Table 7): HIT (Hits were defined as molecules that exhibited greater than 50% inhibition of either fibrin or LPS activation)
[3]; Table 3, screen at 10 μM
  Quadrant (FIG. 5b): Q2
[3]; Table 7, fib = fibrin, LPS, tox = toxicity
  Activity: fib/LPS
[3]; hit classification in microglia HTS
  Cherry-picked Hit (Suppl. Table 7): HIT (Hits were defined as molecules that exhibited greater than 50% inhibition of either fibrin or LPS activation)
[3]; microglia HTS, Table 6
  Cherry-picked Hit (Suppl. Table 7): HIT (Hits were defined as molecules that exhibited greater than 50% inhibition of either fibrin or LPS activation)
  Quadrant (FIG. 5b): Q2
[3]; [9]
  Quadrant (FIG. 5b): Q2
Primary rat microglia [4]; [10]
  LPS % cell toxicity: 6%
Primary rat microglia [4]; LPS assay
  IC50: 2 µM
Primary rat microglia [4]; LPS assay, Table 6
  IC50: 2 µM
Primary rat microglia [4]; Table 3
  IC50: 2 µM
Primary rat microglia [5]; [11]
  Fibrin % cell toxicity: 3%
Primary rat microglia [5]; Table 3
  IC50: > 20 µM
Primary rat microglia [5]; cFib assay
  IC50: > 20 µM
Primary rat microglia [5]; cFib assay, Table 6
  IC50: > 20 µM

## Cc1cc(C(C)(C)C)c(O)c(C)c1CC1=NCCN1 [Oxymetazoline]
[1]; [6]
  inhibition at 10 µM: -13%
[2]; [12]
  inhibition at 10 µM: 20%
[3]; [9]
  Quadrant (FIG. 5b): Q4
Primary rat microglia [4]; [10]
  LPS % cell toxicity: 0%
Primary rat microglia [5]; [11]
  Fibrin % cell toxicity: 1%

## C[C@H](CCC(=O)O)[C@H]1CC[C@H]2[C@@H]3[C@@H](O)C[C@@H]4C[C@H](O)CC[C@]4(C)[C@H]3CC[C@]12C [Ursodiol]
[1]; [13]
  Fibrin % inhibition: −21%
[2]; [14]
  LPS % inhibition: 18%
[3]; [8]
  Quadrant (FIG. 5b): Q4
Primary rat microglia [4]; [15]
  LPS % cell toxicity: 0%
Primary rat microglia [5]; [16]
  Fibrin % cell toxicity: 0%

## NC(=O)c1cc([N+](=O)[O-])cc([N+](=O)[O-])c1 [Nitromide]
[1]; [6]
  Fibrin % inhibition: −7%
[2]; [7]
  LPS % inhibition: 11%
[3]; [9]
  Quadrant (FIG. 5b): Q4
Primary rat microglia [4]; [10]
  LPS % cell toxicity: 0%
Primary rat microglia [5]; [11]
  Fibrin % cell toxicity: 0%

## Merbromin
[1]; [6]
  Fibrin % inhibition: −6%
[2]; [7]
  LPS % inhibition: 36%
[3]; [9]
  Quadrant (FIG. 5b): Q4
Primary rat microglia [4]; [10]
  LPS % cell toxicity: 0%
Primary rat microglia [5]; [11]
  Fibrin % cell toxicity: 0%

## CC(C)(C)NC[C@H](O)COc1nsnc1N1CCOCC1 [Timolol Maleate]
[1]; [13]
  Fibrin % inhibition: −4%
[2]; [14]
  LPS % inhibition: 19%
[3]; [8]
  Quadrant (FIG. 5b): Q4
Primary rat microglia [4]; [15]
  LPS % cell toxicity: 0%
Primary rat microglia [5]; [16]
  Fibrin % cell toxicity: 0%

## NC(=O)OCC(O)COc1ccc(Cl)cc1 (stereo not drawn) [Chlorphenesin Carbamate]
[1]; [17]
  inhibition at 10 µM: -41%
[2]; [18]
  inhibition at 10 µM: -4%
[3]; primary HTS, 10 μM
  Quadrant (FIG. 5b): Q4
Primary rat microglia [4]; [19]
  LPS % cell toxicity: 0%
Primary rat microglia [5]; [20]
  Fibrin % cell toxicity: 1%

## CC1(O)CCC(C(C)(C)O)CC1.O (stereo not drawn) [Terpene Hydrate]
[1]; [13]
  Fibrin % inhibition: −6%
[2]; [14]
  LPS % inhibition: 8%
[3]; [8]
  Quadrant (FIG. 5b): Q4
Primary rat microglia [4]; [15]
  LPS % cell toxicity: 0%
Primary rat microglia [5]; [16]
  Fibrin % cell toxicity: 1%

## CCOC(=O)C(C)(C)Oc1ccc(Cl)cc1 [Clofibrate]
[1]; [17]
  inhibition at 10 µM: -20%
[2]; [18]
  inhibition at 10 µM: 18%
[3]; primary HTS, 10 μM
  Quadrant (FIG. 5b): Q4
Primary rat microglia [4]; [19]
  LPS % cell toxicity: 1%
Primary rat microglia [5]; [20]
  Fibrin % cell toxicity: 0%

## Cc1noc(NS(=O)(=O)c2ccc(N)cc2)c1C [Sulfisoxazole]
[1]; [13]
  inhibition at 10 µM: -11%
[2]; [14]
  inhibition at 10 µM: 6%
[3]; [8]
  Quadrant (FIG. 5b): Q4
Primary rat microglia [4]; [15]
  LPS % cell toxicity: 0%
Primary rat microglia [5]; [16]
  Fibrin % cell toxicity: 0%

## Cn1cnc2c1c(=O)[nH]c(=O)n2C [Theobromine]
[1]; [13]
  inhibition at 10 µM: 11%
[2]; [14]
  inhibition at 10 µM: 18%
[3]; [8]
  Quadrant (FIG. 5b): Q4
Primary rat microglia [4]; [15]
  LPS % cell toxicity: 1%
Primary rat microglia [5]; [16]
  Fibrin % cell toxicity: 0%

## C[C@]12CC[C@H]3[C@@H](CC[C@@]45O[C@@H]4C(O)=C(C#N)C[C@]35C)[C@@H]1CC[C@@H]2O [Trilostane]
[1]; [13]
  inhibition at 10 µM: -24%
[2]; [14]
  inhibition at 10 µM: 11%
[3]; [8]
  Quadrant (FIG. 5b): Q4
Primary rat microglia [4]; [15]
  LPS % cell toxicity: 0%
Primary rat microglia [5]; [16]
  Fibrin % cell toxicity: 0%

## O=S(=O)(O)CCS [Mesna]
[1]; [6]
  inhibition at 10 µM: 18%
[2]; [12]
  inhibition at 10 µM: 5%
[3]; [9]
  Quadrant (FIG. 5b): Q4
Primary rat microglia [4]; [10]
  LPS % cell toxicity: 0%
Primary rat microglia [5]; [11]
  Fibrin % cell toxicity: 1%

## COc1ccccc1O [Guaiacol]
[1]; [21]
  inhibition at 10 µM: -51%
[2]; [22]
  inhibition at 10 µM: 11%
[3]; [9]
  Quadrant (FIG. 5b): Q4
Primary rat microglia [4]; [23]
  LPS % cell toxicity: 0%
Primary rat microglia [5]; [24]
  Fibrin % cell toxicity: 0%

## CCCCCCCCCCCCCCCC(=O)OC[C@@H](NC(=O)C(Cl)Cl)[C@H](O)c1ccc([N+](=O)[O-])cc1 [Chloramphenicol Palmitate]
[1]; [17]
  inhibition at 10 µM: 15%
[2]; [18]
  inhibition at 10 µM: 9%
[3]; primary HTS, 10 μM
  Quadrant (FIG. 5b): Q4
Primary rat microglia [4]; [19]
  LPS % cell toxicity: 1%
Primary rat microglia [5]; [20]
  Fibrin % cell toxicity: 1%

## O=C(O)P(=O)(O)O [Foscarnet]
[1]; [21]
  inhibition at 10 µM: 5%
[2]; [22]
  inhibition at 10 µM: 10%
[3]; [9]
  Quadrant (FIG. 5b): Q4
Primary rat microglia [4]; [23]
  LPS % cell toxicity: 0%
Primary rat microglia [5]; [24]
  Fibrin % cell toxicity: 1%

## CC(O)CN1CCN(CC(=O)[O-])CCN(CC(=O)[O-])CCN(CC(=O)[O-])CC1.[Gd+3] (stereo not drawn) [Gadoteridol]
[1]; [21]
  Fibrin % inhibition: −18%
[2]; primary microglia HTS, LPS stimulation, activation = cell size >800 μm2
  LPS % inhibition: 15%
[3]; [9]
  Quadrant (FIG. 5b): Q4
Primary rat microglia [4]; [23]
  LPS % cell toxicity: 0%
Primary rat microglia [5]; [24]
  Fibrin % cell toxicity: 1%

From patent US20210330611A1, “THERAPY FOR NEUROLOGICAL DISEASES/DISORDERS” (priority 2020, published 2021)
